Assay results as given in patent US7868204B2, “Inhibitors of histone deacetylase” (MethylGene Inc., priority 2001, dated 2011).
Where two headings read alike, the source gives them in different places.

Key:
[1] = target: T1, cloned recombinant human HDAC-1 (Homo sapiens, UniProt Q13547); test: Human HDAC-1 enzyme inhibition, Assay 1 ([3H]-acetylated histone substrate, scintillation counting); type: biochemical; conditions: read-out: Human HDAC-1 IC50
T1 construct: made in house; host or cells: Baculovirus insect cell expression system
T1 sequence (Q13547 whole entry): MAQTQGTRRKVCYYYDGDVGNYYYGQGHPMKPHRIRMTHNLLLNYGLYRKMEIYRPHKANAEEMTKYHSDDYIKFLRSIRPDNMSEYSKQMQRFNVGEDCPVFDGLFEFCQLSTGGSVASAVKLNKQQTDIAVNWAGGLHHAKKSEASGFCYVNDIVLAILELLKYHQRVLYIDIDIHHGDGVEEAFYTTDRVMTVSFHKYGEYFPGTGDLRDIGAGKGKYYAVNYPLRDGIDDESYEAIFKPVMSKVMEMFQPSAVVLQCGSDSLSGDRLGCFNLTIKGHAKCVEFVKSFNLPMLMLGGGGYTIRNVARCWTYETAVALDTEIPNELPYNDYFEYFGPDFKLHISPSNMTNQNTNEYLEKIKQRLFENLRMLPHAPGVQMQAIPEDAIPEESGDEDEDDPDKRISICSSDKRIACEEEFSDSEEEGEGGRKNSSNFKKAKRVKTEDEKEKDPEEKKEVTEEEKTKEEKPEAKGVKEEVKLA
How it was run: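 Recombinant human HDAC-1 from baculovirus-infected insect cells, preincubated with compound 30 min at 4° C. before reaction. Released [3H]-acetic acid extracted with ethyl acetate and counted by scintillation. IC50 taken from dose-response curves as concentration giving half-maximal inhibition.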

HCT116 cells = test: MTT assay; type: cell-based; conditions: Homo sapiens, HCT-116, 72 h, HCT116 cells, 72 hours
How it was run: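 Cells plated one day before dosing, then exposed to compound 72 h at 37 °C, 5% CO2. MTT at 0.5 mg/ml final for 4 h, solubilized in DMF/SDS buffer pH 4.7; OD converted to cell number from a standard growth curve.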

[2] = test system: acetylated histone H-4 in T24 human bladder cancer cells; test: Histone H4 acetylation in whole cells by immunoblots; type: cell-based; conditions: 16 h
Method: T24 human bladder cancer cells growing in culture were incubated with HDAC inhibitors for 16 h. […] of total histone protein was loaded onto SDS/PAGE and transferred to nitrocellulose membranes. Membranes were probed with polyclonal antibodies specific for acetylated histone H-4 (Upstate Biotech Inc.), followed by horse radish peroxidase conjugated secondary antibodies (Sigma). Enhanced Chemiluminescence (ECL) (Amersham) detection was performed using Kodak films (Eastman Kodak). Acetylated H-4 signal was quantified by densitometry.

[3] = T-24, Table 5a, read-out: H4Ac (T24) EC50
[4] = T-24, Table 5c, read-out: H4Ac (T24) EC50
[5] = T-24, Table 5E, read-out: H4 Ac (T24) EC50

Structure (SMILES)	IC50 ([1]; Table 5a) [µM]	IC50 (HCT116 cells; Table 5a) [µM]	EC50 [2, 3] [µM]	also measured
Nc1nc(CC(=O)N2CCN(Cc3ccc4c(c3)OCO4)CC2)nc(NCc2ccc(C(=O)Nc3ccccc3N)cc2)n1 [18b]	0.6	5	10	
COc1ccc(NCc2ccc(C(=O)Nc3cscc3N)cc2)cc1OC [424c, N-(4-Aminothiophen-3-yl)-4-[(3,4-dimethoxyphenylamino)-methyl]-benzamide]				IC50 ([1]; Table 5F): 3 µM; IC50 (HCT116 cells; Table 5F): 0.8 µM; EC50 ([2]; T-24, Table 5F, read-out: H4 Ac (T24) EC50): 3 µM
Nc1nc(NCc2ccc(C(=O)Nc3ccccc3N)cc2)nc(NC2Cc3ccccc3C2)n1 [Cpd 8, 4-{[4-Amino-6-(2-indanyl-amino)-[1,3,5]-triazin-2-yl-amino]-methyl}-N-(2-amino-phenyl)-benzamide]	0.4	0.5	1	
Nc1nc(NCc2ccc(C(=O)Nc3ccccc3N)cc2)nc(NC2CCc3ccccc32)n1 (stereo not drawn) [Cpd 10, 4-{[4-amino-6-(1-indanyl-amino)-[1,3,5]-triazin-2-ylamino]-methyl}-N-(2-amino-phenyl)-benzamide]	2	0.6	1	
Nc1nc(NCc2ccc(C(=O)Nc3ccccc3N)cc2)nc(N2CCN(c3ccccc3)CC2)n1 [Cpd 11]	2	0.6	2	
Nc1nc(NCc2ccc(C(=O)Nc3ccccc3N)cc2)nc(NCc2ccccn2)n1 [Cpd 12]	2	2	5	
CC1(C)C2CC[C@@](C)(C2)[C@H]1Nc1nc(N)nc(NCc2ccc(C(=O)Nc3ccccc3N)cc2)n1 [Cpd 17]	0.9	1	2	
COc1cc(Nc2nc(N)nc(NCc3ccc(C(=O)Nc4ccccc4N)cc3)n2)cc(OC)c1OC [Cpd 21, N-(2-Amino-phenyl)-4-{[4-amino-6-(3,4,5-trimethoxy-phenylamino)-[1,3,5]triazin-2-ylamino]-methyl}-benzamide]	4	4	25	
Nc1ccccc1NC(=O)c1ccc(CNc2nc(NCc3ccccc3)nc(NC3Cc4ccccc4C3)n2)cc1 [Cpd 25]	0.8	0.3	5	
Nc1ccccc1NC(=O)/C=C/c1ccc(NC(=O)OCc2cccnc2)cc1 [Cpd 55b]				IC50 ([1]; Table 5c): 3 µM; IC50 (HCT116 cells; Table 5c): 8 µM; EC50 [2, 4]: 3 µM
Nc1ccccc1NC(=O)/C=C/c1ccc(NCc2cccnc2)nc1 [Cpd 90, N-(2-aminophenyl)-3-{6-[(pyridin-3-ylmethyl)-amino]-pyridin-3-yl}-acrylamide]				IC50 ([1]; Table 5c): 10 µM; IC50 (HCT116 cells; Table 5c): 5 µM; EC50 [2, 4]: 5 µM
COc1ccc(CCNc2ccc(/C=C/C(=O)Nc3ccccc3N)cn2)cc1 [Cpd 95, N-(2-aminophenyl)-3-{6-[2-(4-methoxy-phenyl)-ethylamino]-pyridin-3-yl}-acrylamide]				IC50 ([1]; Table 5c): 3 µM; IC50 (HCT116 cells; Table 5c): 2 µM; EC50 [2, 4]: 10 µM
Nc1ccccc1NC(=O)/C=C/c1ccc(NCc2cc(F)cc(F)c2)nc1 [Cpd 100, N-(2-aminophenyl)-3-[6-(3,5-difluoro-benzylamino)-pyridin-3-yl]-acrylamide]				IC50 ([1]; Table 5c): 4 µM; IC50 (HCT116 cells; Table 5c): 3 µM; EC50 [2, 4]: 5 µM
Nc1ccccc1NC(=O)/C=C/c1ccc(NCc2cccc(C(F)(F)F)c2)nc1 [Cpd 101, N-(2-aminophenyl)-3-[6-(3-trifluoromethyl-benzylamino)-pyridin-3-yl]-acrylamide]				IC50 ([1]; Table 5c): 3 µM; IC50 (HCT116 cells; Table 5c): 0.9 µM; EC50 [2, 4]: 5 µM
Nc1ccccc1NC(=O)/C=C/c1ccc(CNC(=O)OCc2cccnc2)cc1 [Cpd 104]				IC50 ([1]; Table 5c): 10 µM; IC50 (HCT116 cells; Table 5c): 9 µM; EC50 [2, 4]: 5 µM
COc1ccc(NCc2ccc(/C=C/C(=O)Nc3ccccc3N)cc2)cn1 [Cpd 109, N-(2-Amino-phenyl)-3-{4-[(6-methoxy-pyridin-3-ylamino)-methyl]-phenyl}-acrylamide]				IC50 ([1]; Table 5c): 5 µM; IC50 (HCT116 cells; Table 5c): 8 µM; EC50 [2, 4]: 15 µM
Nc1ccccc1NC(=O)/C=C/c1ccc(NC/C=C/c2ccccc2)nc1 [Cpd 112]				IC50 ([1]; Table 5c): 2 µM; IC50 (HCT116 cells; Table 5c): 5 µM; EC50 [2, 4]: 5 µM
Nc1ccccc1NC(=O)c1ccc(CSc2nc3ccc(NCCN4CCOCC4)cc3s2)cc1 [Cpd 128, N-(2-Amino-phenyl)-4-[6-(2-morpholin-4-yl-ethylamino)-benzothiazol-2-ylsulfanylmethyl]-benzamide]				IC50 ([1]; Table 5E): 1 µM; IC50 (HCT116 cells; Table 5E): 0.3 µM; EC50 [2, 5]: 5 µM
Nc1ccccc1NC(=O)c1ccc(CSc2ccc3ccccc3n2)cc1 [Cpd 131, N-(2-Amino-phenyl)-4-(quinolin-2-ylsulfanylmethyl)-benzamide]				IC50 ([1]; Table 5E): 0.3 µM; IC50 (HCT116 cells; Table 5E): 0.9 µM; EC50 [2, 5]: 2 µM
Cn1ccnc1SCc1ccc(C(=O)Nc2ccccc2N)cc1 [Cpd 139, N-(2-Amino-phenyl)-4-(1-methyl-1H-imidazol-2-ylsulfanylmethyl]-benzamide]				IC50 ([1]; Table 5E): 3 µM; IC50 (HCT116 cells; Table 5E): 3 µM; EC50 [2, 5]: 5 µM
Nc1ccccc1NC(=O)c1ccc(CN2C(=O)c3ccccc3C2=O)cc1 [Cpd 149, N-(2-Amino-phenyl)-4-(1,3-dioxo-1,3-dihydro-isoindol-2-ylmethyl)-benzamide]				IC50 ([1]; Table 5E): 1 µM; IC50 (HCT116 cells; Table 5E): 5 µM; EC50 [2, 5]: 5 µM
Nc1ccccc1NC(=O)c1ccc(Cn2nnc3ccccc3c2=O)cc1 [Cpd 155, N-(2-Amino-phenyl)-4-(4-oxo-4H-benzo[d][1,2,3]triazin-3-ylmethyl)-benzamide]				IC50 ([1]; Table 5E): 0.4 µM; IC50 (HCT116 cells; Table 5E): 0.4 µM; EC50 [2, 5]: 1 µM
COc1cccc(-c2ccc(C(=O)Nc3ccccc3N)cc2)c1 [Cpd 166]				IC50 ([1]; Table 5E): 2 µM; IC50 (HCT116 cells; Table 5E): 5 µM; EC50 [2, 5]: 5 µM
COc1cc(OC)nc(NCc2ccc(C(=O)Nc3ccccc3N)cc2)n1 [Cpd 169]				IC50 ([1]; Table 5E): 0.3 µM; IC50 (HCT116 cells; Table 5E): 0.7 µM; EC50 [2, 5]: 1 µM
COc1ccc(CSc2ccc(C(=O)Nc3ccccc3N)cn2)cc1 [Cpd 171]				IC50 ([1]; Table 5E): 8 µM; IC50 (HCT116 cells; Table 5E): 3 µM; EC50 [2, 5]: 25 µM
Nc1ccccc1NC(=O)c1ccc(CSc2nc3ccccc3s2)cc1 [Cpd 172]				IC50 ([1]; Table 5E): 0.4 µM; IC50 (HCT116 cells; Table 5E): 1 µM; EC50 [2, 5]: 3 µM

Continued, in another order:

IC50 ([1]; Table 5a) [µM]	IC50 (HCT116 cells; Table 5a) [µM]	EC50 [2, 3] [µM]	Structure (SMILES)	also measured
0.3	1	5	Nc1nc(NCc2ccc(C(=O)Nc3ccccc3N)cc2)nc(NC2c3ccccc3-c3ccccc32)n1 [Cpd 14, 4-{[4-Amino-6-(9H-fluoren-9-ylamino)-[1,3,5]triazin-2-ylamino]-methyl)-N-(2-amino-phenyl)-benzamide]	
0.8	0.6	3	C=CCNc1nc(NCc2ccc(C(=O)Nc3ccccc3N)cc2)nc(NC2Cc3ccccc3C2)n1 [Cpd 18]	
0.9	1	1	Nc1ccccc1NC(=O)c1ccc(CNc2nc(NC3CC3)nc(NC3Cc4ccccc4C3)n2)cc1 [Cpd 19]	
0.5	0.3	1	Nc1nc(NCCc2ccccc2)nc(NCc2ccc(C(=O)Nc3ccccc3N)cc2)n1 [Cpd 20, 4-[(4-Amino-6-phenethylamino-[1,3,5]triazin-2-ylamino)-methyl]-N-(2-amino-phenyl)-benzamide]	
3	0.8	1	Nc1nc(NCc2ccc(C(=O)Nc3ccccc3N)cc2)nc(N2CCc3ccccc32)n1 [Cpd 22, 4-{[4-Amino-6-(2,3-dihydro-indol-1-yl)-[1,3,5]triazin-2-ylamino]-methyl}-N-(2-amino-phenyl)-benzamide]	
2	0.7	1	COc1ccccc1CCNc1nc(N)nc(NCc2ccc(C(=O)Nc3ccccc3N)cc2)n1 [Cpd 23, 4-({4-Amino-6-[2-(2-methoxy-phenyl)-ethylamino]-[1,3,5]triazin-2-ylamino}-methyl)-N-(2-amino-phenyl)-benzamide]	
3	0.6	1	Nc1nc(NCCc2ccccc2F)nc(NCc2ccc(C(=O)Nc3ccccc3N)cc2)n1 [Cpd 24, 4-({4-Amino-6-[2-(2-fluoro-phenyl)-ethylamino]-[1,3,5]triazin-2-ylamino)-methyl)-N-(2-amino-phenyl)-benzamide]	
2	0.5	1	Nc1nc(NCc2ccc(C(=O)Nc3ccccc3N)cc2)nc(N2Cc3ccccc3C2)n1 [Cpd 28]	
2	2	1	Nc1nc(NCc2ccccc2)nc(NCc2ccc(C(=O)Nc3ccccc3N)cc2)n1 [Cpd 29, 4-[(4-Amino-6-benzylamino-[1,3,5]triazin-2-ylamino)-methyl]-N-(2-amino-phenyl)-benzamide]	
1	3	1	Nc1ccccc1NC(=O)c1ccc(CNc2nc(NCc3cccnc3)nc(NC3Cc4ccccc4C3)n2)cc1 [Cpd 30]	
3	5	5	Nc1nc(NCc2ccc(/C=C/C(=O)Nc3ccccc3N)cc2)nc(NC2Cc3ccccc3C2)n1 [Cpd 83]	
